Measured values taken from PubChem BioAssay (NCI).
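Following 48 hours of exposure in 96-well plates, responses at five concentrations were used to interpolate endpoints linearly. At the GI50, growth is halved. TGI marks complete inhibition of growth.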

Tests used:
Experiment in all cases: NCI-60 cell line screen, 48 h
[1] = test system: CAKI-1 renal
[2] = test system: SF-268 CNS
[3] = test system: SK-MEL-28 melanoma
[4] = test system: ACHN renal
[5] = test system: SF-539 CNS
[6] = test system: TK-10 renal
[7] = test system: NCI-H23 lung
[8] = test system: A498 renal
[9] = test system: MOLT-4 leukemia
[10] = test system: CCRF-CEM leukemia

Structure (SMILES)	TGI [1] [µM]	TGI [2] [µM]	TGI [3] [µM]	TGI [4] [µM]	TGI [5] [µM]	TGI [6] [µM]	TGI [7] [µM]	TGI [8] [µM]	TGI [9] [µM]	TGI [10] [µM]	GI50 [1] [µM]	GI50 [2] [µM]	GI50 [3] [µM]	GI50 [4] [µM]	GI50 [5] [µM]	GI50 [6] [µM]	GI50 [7] [µM]	GI50 [8] [µM]	GI50 [9] [µM]	GI50 [10] [µM]
O=S(=O)(O)CS(=O)(=O)OCCCl	> 100	> 100	> 100	> 100	> 100	> 100	> 100	> 100	> 100	–	–	–	–	–	–	–	–	–	–	–
Cn1ncc2cc3c(Nc4ccc(Cl)cc4)cccc3nc21	61.3	> 100	35.8	72.5	–	> 100	> 100	–	36.3	92.7	–	–	–	–	–	–	–	–	–	–
COC(=O)Nc1nc2ccc(C(=O)c3ccc[nH]3)cc2[nH]1	> 100	> 100	> 100	> 100	42.3	> 93.6	> 100	> 100	> 100	12.7	–	–	–	–	–	–	–	–	–	–
CCOC(=O)Cc1c(Cc2[nH]c(C(=O)OCc3ccccc3)c(CC(=O)OCC)c2CC(=O)OCC)[nH]c(C(=O)OCc2ccccc2)c1CC(=O)OCC	> 100	> 100	> 100	> 100	> 100	–	–	> 100	> 100	> 100	–	–	–	–	–	–	–	–	–	–
O/N=C1/C(=C/c2ccc(F)cc2)CCCC1C(NO)c1ccc(F)cc1 (centres undefined)	> 100	> 100	> 100	> 100	> 100	> 100	51.7	> 100	55.3	> 100	–	–	–	–	–	–	–	–	–	–
Cc1c(NC(=O)C(=O)N=NC(=O)c2ccncc2)c(O)c2ccccc2c1O	57	60.5	31.7	29.6	33.3	> 100	23.5	43.5	> 77.8	> 87	–	–	–	–	–	–	–	–	–	–
O=c1c(Cl)nnc2sc3ccccc3n12	6.9	> 100	> 100	9.92	> 100	90.7	> 100	> 100	> 100	–	0.813	51.1	59	2.3	37.5	8.15	25.2	> 100	19.6	–
O=C(Nc1ccncc1)C(=O)c1cn(S(=O)(=O)c2ccc(Br)cc2)c2ccccc12	> 100	> 100	> 100	> 100	> 100	> 100	> 100	> 100	–	> 100	4.44	8.47	4.77	9.13	8.03	15.1	4.74	3.17	–	7.67
O=C1C=C[C@]2(C[C@@H](c3cccc(C(F)(F)F)c3)O[C@@H](c3cccc(C(F)(F)F)c3)O2)O1	12.4	4.14	6.44	3.1	3.31	3.22	18.7	9.21	–	13.1	2.95	1.5	2.34	1.55	1.43	1.66	4.03	1.81	–	2.48
